Source: patent publication US8802597B2, “Herbicidal pyrimidines” (E I du Pont de Nemours and Company, priority 2003, dated 2014)

Experiments:
Format in all cases: in vivo
[1] = test system: cocklebur (XANST, Xanthium strumarium L.); test: Test H mixtures of compound 1 with diflufenzopyr; settings: foliage spray
Source text: (§1) This test evaluated the effect of mixtures of compound 1 with diflufenzopyr on several plant species. Seeds of test plants consisting of large crabgrass (DIGSA, Digitaria sanguinalis (L.) Scop.), lambsquarters (CHEAL, Chenopodium album L.), redroot pigweed (AMARE, Amaranthus retroflexus L.), cocklebur (XANST, Xanthium strumarium L.), barnyardgrass (ECHCG; Echinochloa crus-galli (L.) Beauv.), corn (ZEAMD, Zea mays L. cv. ‘Pioneer 33G26’), scarlet (red) morningglory (IPOCO, Ipomoea coccinea L.), giant foxtail (SETFA, Setaria faberi Herrm.) and velvetleaf (ABUTH, Abutilon theophrasti Medik.) were planted in pots containing Redi-Earth® planting medium (Scotts Company, 14111 Scottslawn Road, Marysville, Ohio 43041) comprising spaghnum peat moss, vermiculite, wetting agent and starter nutrients. Seeds of small-seeded species were planted about 1 cm deep; larger seeds were planted about 2.5 cm deep. Plants were grown in a greenhouse using supplemental lighting to maintain a photoperiod of about 14 hours; daytime and nighttime temperatures were about 25-30° C. and 22-25° C., respectively. Balanced fertilizer was applied through the watering system. The plants were grown for 7 to 11 days so that at time of treatment the plants ranged in height from 2 to 18 cm (1- to 4-leaf stage). Treatments consisted of Compound 1 and diflufenzopyr alone and in combination, suspended or dissolved in an aqueous solvent comprising glycerin and Tween nonionic surfactant and applied as a foliage spray using a volume of 541 L/ha. Each treatment was replicated four times. […] Treated plants and controls were maintained in the greenhouse and watered as needed with care to not wet the foliage for the first 24 hours after treatment. The effects on the plants approximately 3 weeks after treatment were visually compared to untreated controls. Plant response ratings were calculated as the means of the four replicates, based on a scale of 0 to 100 where 0 is no effect and 100 is complete control. Colby's Equation was used to determine the herbicidal effects expected from the mixtures. Colby's Equation (Colby, S. R. “Calculating Synergistic and Antagonistic Responses of Herbicide Combinations,” Weeds, 15(1), pp 20-22 (1967)) calculates the expected additive effect of herbicidal mixtures, and for two active ingredients is of the form: Pa+b=Pa+Pb−(PaPb/100) wherein Pa+b is the percentage effect of the mixture expected from additive contribution of the individual components, • Pa is the observed percentage effect of the first active ingredient at the same use rate as in the mixture, and • Pb is the observed percentage effect of the second active ingredient at the same use rate as in the mixture.

[2] = test system: giant foxtail (SETFA, Setaria faberi Herrm.); test: Test H mixtures of compound 1 with diflufenzopyr; settings: foliage spray
Source text: as §1

[3] = test system: redroot pigweed (AMARE, Amaranthus retroflexus L.); test: Test H mixtures of compound 1 with diflufenzopyr; settings: foliage spray
Source text: as §1

[4] = test system: large crabgrass (DIGSA, Digitaria sanguinalis (L.) Scop.); test: Test H mixtures of compound 1 with diflufenzopyr; settings: foliage spray
Source text: as §1

[5] = test system: scarlet (red) morningglory (IPOCO, Ipomoea coccinea L.); test: Test H mixtures of compound 1 with diflufenzopyr; settings: foliage spray
Source text: as §1

[6] = test system: velvetleaf (ABUTH, Abutilon theophrasti Medik.); test: Test H mixtures of compound 1 with diflufenzopyr; settings: foliage spray
Source text: as §1

[7] = test system: barnyardgrass (ECHCG; Echinochloa crus-galli (L.) Beauv.); test: Test H mixtures of compound 1 with diflufenzopyr; settings: foliage spray
Source text: as §1

[8] = test system: corn (ZEAMD, Zea mays L. cv. ‘Pioneer 33G26’); test: Test H mixtures of compound 1 with diflufenzopyr; settings: foliage spray
Source text: as §1

[9] = test system: lambsquarters (CHEAL, Chenopodium album L.); test: Test H mixtures of compound 1 with diflufenzopyr; settings: foliage spray
Source text: as §1

[10] = test system: daisy fleabane (Erigeron spp.); test: Test L field study, Compound 1 and nicosulfuron; settings: Compound 1 125 g a.i./ha, approximately 56 days after treatment
Source text: (§2) This field study included treatments that consisted of Compound 1 and nicosulfuron alone and in combination on Canada thistle (Cirsium arvense) and daisy fleabane (Erigeron spp.). The plants ranged from 20 to 30 cm in height at the time of application during the month of May in the vicinity of Newark, Del. Compound 1 was formulated as a wettable powder containing 25% active ingredient by weight. Nicosulfuron was in the form of Accent® Herbicide, a water-dispersible granule formulation containing 75% active ingredient by weight. The formulations were dispersed in water in the sprayer tank before treatment. The treatments were made using a backpack sprayer calibrated to deliver 24 gallons per acre (224 L per hectare) to a 10 ft×30 ft (3 m×9 m) plot. Each treatment was replicated two times. The effects on the plants approximately 56 days after treatment were visually compared to untreated controls. Plant response ratings were calculated as the means of the two replicates, based on a scale of 0 to 100 where 0 is no effect and 100 is complete control. Colby's Equation was used to determine the herbicidal effects expected from the mixture.

[11] = test system: Canada thistle (Cirsium arvense); test: Test L field study, Compound 1 and nicosulfuron; settings: Compound 1 125 g a.i./ha, approximately 56 days after treatment
Source text: as §2

Compound: CCOC(=O)c1nc(C2CC2)nc(N)c1Br [Compound 1, ethyl 6-amino-5-bromo-2-cyclopropyl-4-pyrimidinecarboxylate]
- Obsd. observed effect (0 to 100 scale) ([1]; Cmpd 1 31 g a.i./ha): 87
- Obsd. observed effect (0 to 100 scale) ([1]; Cmpd 1 62 g a.i./ha): 98
- Obsd. observed effect (0 to 100 scale) ([1]; Cmpd 1 125 g a.i./ha): 97
- Obsd. observed effect (0 to 100 scale) ([2]; Cmpd 1 31 g a.i./ha): 2
- Obsd. observed effect (0 to 100 scale) ([2]; Cmpd 1 62 g a.i./ha): 4
- Obsd. observed effect (0 to 100 scale) ([2]; Cmpd 1 125 g a.i./ha): 65
- Obsd. observed effect (0 to 100 scale) ([3]; Cmpd 1 31 g a.i./ha): 91
- Obsd. observed effect (0 to 100 scale) ([3]; Cmpd 1 62 g a.i./ha): 97
- Obsd. observed effect (0 to 100 scale) ([3]; Cmpd 1 125 g a.i./ha): 100
- Obsd. observed effect (0 to 100 scale) ([4]; Cmpd 1 31 g a.i./ha): 7
- Obsd. observed effect (0 to 100 scale) ([4]; Cmpd 1 62 g a.i./ha): 37
- Obsd. observed effect (0 to 100 scale) ([4]; Cmpd 1 125 g a.i./ha): 81
- Obsd. observed effect (0 to 100 scale) ([5]; Cmpd 1 31 g a.i./ha): 92
- Obsd. observed effect (0 to 100 scale) ([5]; Cmpd 1 62 g a.i./ha): 97
- Obsd. observed effect (0 to 100 scale) ([5]; Cmpd 1 125 g a.i./ha): 100
- Obsd. observed effect (0 to 100 scale) ([6]; Cmpd 1 31 g a.i./ha): 14
- Obsd. observed effect (0 to 100 scale) ([6]; Cmpd 1 62 g a.i./ha): 26
- Obsd. observed effect (0 to 100 scale) ([6]; Cmpd 1 125 g a.i./ha): 93
- Obsd. observed effect (0 to 100 scale) ([7]; Cmpd 1 31 g a.i./ha): 25
- Obsd. observed effect (0 to 100 scale) ([7]; Cmpd 1 62 g a.i./ha): 42
- Obsd. observed effect (0 to 100 scale) ([7]; Cmpd 1 125 g a.i./ha): 90
- Obsd. observed effect (0 to 100 scale) ([8]; Cmpd 1 31 g a.i./ha): 2
- Obsd. observed effect (0 to 100 scale) ([8]; Cmpd 1 62 g a.i./ha): 5
- Obsd. observed effect (0 to 100 scale) ([8]; Cmpd 1 125 g a.i./ha): 22
- Obsd. observed effect (0 to 100 scale) ([9]; Cmpd 1 31 g a.i./ha): 98
- Obsd. observed effect (0 to 100 scale) ([9]; Cmpd 1 62 g a.i./ha): 100
- Obsd. observed effect (0 to 100 scale) ([9]; Cmpd 1 125 g a.i./ha): 100
- Obsd. observed effect (0 to 100 scale) [10]: 53
- Obsd. observed effect (0 to 100 scale) [11]: 73
